Earlier results in patent publication US20250230139A1, “Novel Process and Intermediate for the Preparation of Apalutamide” (BDR Lifesciences Private Limited, priority 2022, published 2025).

How the values were obtained:
prostate cancer = conditions: mouse xenograft models of prostate cancer
[1] = acidic carboxamide moiety
[2] = strong base (pH>11)
[3] = powder

## CNC(=O)c1ccc(N2C(=S)N(c3cnc(C#N)c(C(F)(F)F)c3)C(=O)C23CCC3)cc1F [Apalutamide, 4-[7-[6-cyano-5-(trifluoromethyl)pyridin-3-yl]-8-oxo-6-thioxo-5,7-diazaspiro[3.4]octan-5-yl]-2-fluoro-N-methylbenzamide]
Prostate cancer
  apoptosis: increased apoptosis
  tumor cell proliferation: decreased tumor cell proliferation
  tumor volume: decreased tumor volume
[1]
  dissociation constant pKa: 9.7
Aqueous media over a wide range of pH values
  solubility in aqueous media: practically insoluble
Organic solvents
  solubility in organic solvents: practically insoluble to very soluble
[2]
  stability to strong base: unstable
[3]
  hygroscopicity: non-hygroscopic
